Source: patent US20250042880A1 (UNIVERSITY OF KENTUCKY RESEARCH FOUNDATION, priority 2021, published 2025)
“Also recorded” adds a separate entry of the source.

Legend:
[1] = system: AMPK, mTOR and Wnt signaling; assay: Western blotting of cell signaling pathways in CRC cells; assay type: cell-based
Procedure: Western blotting-Western blotting was carried out following previously reported procedures (50). Cells were incubated in 6-well plates and were treated with either DMSO or compounds dissolved in DMSO at indicated concentrations. Cells were lysed in 500 μl of lysis buffer: 50 mM HEPES, 100 mM NaCl, 2 mM EDTA, 1% (v/v) glycerol, 50 mM NaF, 1 mM Na3VO4, 1% (v/v) Triton X-100, with protease inhibitors (Sigma, P8340). The cell lysates were centrifuged (18,000×g, 10 min) and then 6× protein loading buffer was added to the suppernatants. The samples were boiled for 3 min and analyzed by standard Western blotting methods with the indicated antibodies.
Western blotting was performed as previously reported procedures (41). Cells were split into 6-well plates and incubated for 24 hours. Either DMSO or compounds dissolved in DMSO at indicated concentrations were added to each well for another 24 hours. Cells were lysed in 500 μL of lysis buffer containing 50 mmol/L HEPES, 100 mmol/L NaCl, 2 mmol/L EDTA, 1% (v/v) glycerol, 50 mmol/L NaF, 1 mmol/L Na3VO4, 1% (v/v) Triton X-100, and protease inhibitors (Sigma, P8340). Cell lysates were centrifuged for 10 minutes (18,000×g), and the supernatants were mixed with 6×protein loading buffer and boiled for 3 minutes. The samples were analyzed by standard Western blotting methods using the appropriate antibodies.

SKOV-3 cells = details: growth inhibition; cited from earlier work
Pt2377 cells = assay: Cell proliferation inhibition assay, Pt2377; assay type: cell-based
Procedure: Cell proliferation inhibition assay-Cell proliferation inhibition assay was performed as previously reported (48). All compounds to be tested were dissolved at 10 mM in DMSO. The cells were seeded into 12-well plates at a density of 40,000 cells per well in 1 mL of culture medium and were cultured overnight at 37° C. Either 1 μL of the compounds or the vehicle control (DMSO) was added to the cells. After 5 days, the medium was removed, and 200 μL of 0.25% trypsin was added. The cells were resuspended in 800 μL phosphate-buffered saline (PBS) and counted with Vi-CELL XR 2.03 (Beckman Coulter, Inc. USA). The ratio R of the number of viable cells in the compound-treated group to the number of viable cells in the DMSO-treated group was called relative growth rate, and the growth inhibition was calculated as (1−R)*100.

Row | SMILES | effects on AMPK (pAMPK, pACC), mTOR (p70S6K, pS6) and Wnt (Axin2, c-Myc) signaling ([1]; 3 μM alone, LS174T cells, 24 hours) | AMPK phosphorylation (activation) ([1]; 3 μM, LS174T CRC cells) | IC50 (SKOV-3 cells) [nM] | inhibition of proliferation of Pt2377 cells (Pt2377 cells)
1 | O=c1c(-c2ccc(Cl)c(Cl)c2)coc2cc(OCCN3CCN(CCO)CC3)ccc12 [DBI-6, 3-(3,4-dichlorophenyl)-7-(2-(4-(2-hydroxyethyl)piperazin-1-yl)ethoxy)-4H-chromen-4-one] | activated AMPK signaling (pAMPK and pACC) and inhibited mTOR signaling (p70S6K and pS6); also recorded: more active than DBI-1 | best activity in AMPK activation |  | 
2 | Cc1c(NC(=O)c2cc(C(N)=O)nc3cc(F)ccc23)c(C(F)(F)F)nn1Cc1ccc(C#N)cc1 [BAY-876, N^4-[1-(4-cyanobenzyl)-5-methyl-3-(trifluoromethyl)-1H-pyrazol-4-yl]-7-fluoroquinoline-2,4-dicarboxamide] |  |  | 188 | inhibited the proliferation of these cell lines at nanomolar concentrations
